Legend:
[1] = test system: SERT Ala56; format: cell-based, human; conditions: homozygous Ala56 cells preincubated for various times at 37° C. with 10 μM 8BrcGMP
Procedure: (§1) Homozygous Ala56 cells (10^6/tube) were preincubated for various times at 37° C. with 10 μM 8BrcGMP prior to [^3H]5-HT transport assays.
(§2) Functional Analysis of Gly56Ala Activity and Regulation. EBV-transformed lymphocyte cell lines from AGRE or Tufts/Vanderbilt autism families carrying either the Gly56 or 56Ala alleles were obtained from the NIMH Human Genetics Initiative Repository (www.nimhgenetics.org/) at Rutgers University. […] Lymphocytes were pelleted at 1500 rpm, 5 min and washed with KRH assay buffer. A total of 1×10^6 cells in triplicate were pre-warmed (37° C.) in a shaking water bath (10 min) in 12×75 polypropylene tubes in KRH buffer containing 100 μM pargyline and 100 μM ascorbic acid. After a 5-min incubation with [^3H]5-HT (20 nM) at 37° C., uptake assays were terminated by immersion on ice, and uptake in pelleted, 1% SDS-extracted cells quantitated by scintillation spectrometry. Specific 5-HT uptake was determined by subtracting the amount of [^3H]5-HT accumulated in the presence of 10 μM paroxetine (SmithKline Beecham). [^3H]L-glutamate transport assays were conducted as described for [^3H]5-HT except using 100 nM substrate and defining nonspecific uptake with parallel accumulation acquired at 4° C.

[2] = test system: Gly56 SERT; format: cell-based, human; conditions: coincubation with PKG inhibitor H8 at 10 μM; data not shown
Procedure: as §1, §2

SMILES	sensitivity of SERT Ala56 [3H]5-HT transport to 8BrcGMP [1]	block of 8BrcGMP effects on Gly56 SERT [2]
Nc1nc2c(nc(Br)n2[C@@H]2O[C@@H]3COP(=O)(O)O[C@H]3[C@H]2O)c(=O)[nH]1 [8BrcGMP]	lacks sensitivity	–
CNCCNS(=O)(=O)c1cccc2cnccc12 [H8]	–	completely blocked

— patent publication US20070037194A1, “Allelic variation in the serotonin transporter (SERT) as an indicator of autism” (priority 2005, published 2007)
